# Structures can show the parent of a compound that is named as a salt.
row,Compound,melting point
1,"Cc1cccc(S(=O)(=O)Nc2cc(C)c(S(=O)(=O)C[N+](=O)[O-])c(C)c2)c1 [Example 6, N-[3,5-Dimethyl-4-[(nitromethyl)sulphonyl]phenyl]-3-methylbenzenesulphonamide]",179 to 181 °C
2,"Cc1ccccc1S(=O)(=O)Nc1cc(C)c(S(=O)(=O)C[N+](=O)[O-])c(C)c1 [Example 45, N-[3,5-Dimethyl-4-[(nitromethyl)sulphonyl]phenyl]-2-methylbenzenesulphonamide]",118 to 120 °C
3,"Cc1cc(NS(=O)(=O)c2cc(F)c(Br)cc2F)cc(C)c1S(=O)(=O)C[N+](=O)[O-] (as salt: acetate) [Example 27, 4-Bromo-2,5-difluoro-N-[3,5-dimethyl-4-[(nitromethyl)-sulphonyl]phenyl]benzenesulphonamide]",167 to 169 °C
4,"Cc1cc(NS(=O)(=O)c2ccc3oc4ccccc4c3c2)cc(C)c1S(=O)(=O)C[N+](=O)[O-] [Example 38, N-[3,5-Dimethyl-4-[(nitromethyl)sulphonyl]phenyl]-2-dibenzofuransulphonamide]",214 to 215 °C (dec.)
5,Cc1cc(NS(=O)(=O)Cc2ccccc2[N+](=O)[O-])cc(C)c1S(=O)(=O)C[N+](=O)[O-],189 to 190 °C
6,Cc1cc(NS(=O)(=O)Cc2cccc(CS(=O)(=O)Nc3cc(C)c(S(=O)(=O)C[N+](=O)[O-])c(C)c3)c2)cc(C)c1S(=O)(=O)C[N+](=O)[O-],124 to 130 °C
7,"Cc1ccc(S(=O)(=O)Nc2cc(C)c(S(=O)(=O)C[N+](=O)[O-])c(C)c2)cc1 [Example 7, N-[3,5-Dimethyl-4-[(nitromethyl)sulphonyl]phenyl]-4-methylbenzenesulphonamide]",163 to 165 °C
8,Cc1cc(NS(=O)(=O)c2cccc(S(=O)(=O)Nc3cc(C)c(S(=O)(=O)C[N+](=O)[O-])c(C)c3)c2)cc(C)c1S(=O)(=O)C[N+](=O)[O-],191 to 192 °C
9,"Cc1ccc(S(=O)(=O)NC(=O)Nc2cc(C)c(S(=O)(=O)C[N+](=O)[O-])c(C)c2)cc1 [Example 21, 1-[3,5-Dimethyl-4-[(nitromethyl)sulphonyl]phenyl]-3-[(4-methylphenyl)sulphonyl]urea]",150 to 155 °C
10,"Cc1cc(NS(=O)(=O)Cc2ccc(Br)cc2F)cc(C)c1S(=O)(=O)C[N+](=O)[O-] [Example 52, 4-Bromo-N-[3,5-dimethyl-4-[(nitromethyl)sulphonyl]-phenyl]-(2-fluorophenyl)methanesulphonamide]",152 to 154 °C
11,Cc1cc(NC(=O)C(=O)Nc2cc(C)c(S(=O)(=O)C[N+](=O)[O-])c(C)c2)cc(C)c1S(=O)(=O)C[N+](=O)[O-],246 to 248 °C
12,"CC(=O)Nc1ccc(S(=O)(=O)Nc2cc(C)c(S(=O)(=O)C[N+](=O)[O-])c(C)c2)cc1 [Example 22, N-[4-[3,5-Dimethyl-4-[(nitromethyl)sulphonyl]phenylsulphamoyl]phenyl]acetamide]",209 to 210 °C
13,Cc1cc(NC(=O)CCCC(=O)Nc2cc(C)c(S(=O)(=O)C[N+](=O)[O-])c(C)c2)cc(C)c1S(=O)(=O)C[N+](=O)[O-],207 to 210 °C
14,"Cc1ccccc1S(=O)(=O)NC(=O)Nc1cc(C)c(S(=O)(=O)C[N+](=O)[O-])c(C)c1 [Example 20, 1-[3,5-Dimethyl-4-[(nitromethyl)sulphonyl]phenyl]-3-[(2-methylphenyl)sulphonyl]urea]",194 to 196 °C
15,"CC(=O)Nc1ccc(S(=O)(=O)Nc2cc(C)c(S(=O)(=O)C[N+](=O)[O-])c(C)c2)cc1Cl [Example 43, N-[2-Chloro-4-[3,5-dimethyl-4-[(nitromethyl)sulphonyl]-phenylsulphamoyl]phenyl]acetamide]",209 to 211 °C
16,"Cc1cc(NS(=O)(=O)c2c(F)c(F)c(F)c(F)c2F)cc(C)c1S(=O)(=O)C[N+](=O)[O-] [Example 37, N-[3,5-Dimethyl-4-[(nitromethyl)sulphonyl]phenyl]-2,3,4,5,6-pentafluorobenzenesulphonamide]",128 to 130 °C
17,"Cc1cc(NS(=O)(=O)Cc2ccccc2C(F)(F)F)cc(C)c1S(=O)(=O)C[N+](=O)[O-] [Example 48, N-[3,5-Dimethyl-4-[(nitromethyl)sulphonyl]phenyl]-(2-trifluoromethylphenyl)methanesulphonamide]",146 to 148 °C
18,"Cc1cc(NS(=O)(=O)c2ccc(-c3ccccc3)cc2)cc(C)c1S(=O)(=O)C[N+](=O)[O-] [Example 39, N-[3,5-Dimethyl-4-[(nitromethyl)sulphonyl]phenyl]-4-biphenylsulphonamide]",206 to 208 °C (dec.)
19,Cc1cc(NC(=O)CCCCCCC(=O)Nc2cc(C)c(S(=O)(=O)C[N+](=O)[O-])c(C)c2)cc(C)c1S(=O)(=O)C[N+](=O)[O-],235 to 238 °C
20,Cc1cc(N(C(=O)CCC(N)=O)c2cc(C)c(S(=O)(=O)C[N+](=O)[O-])c(C)c2)cc(C)c1S(=O)(=O)C[N+](=O)[O-],226 to 228 °C
21,"Cc1cc(NS(=O)(=O)c2cc(F)ccc2F)cc(C)c1S(=O)(=O)C[N+](=O)[O-] [Example 28, 2,5-Difluoro-N-[3,5-dimethyl-4-[(nitromethyl)sulphonyl]phenyl]benzenesulphonamide]",132 to 134 °C
22,Cc1cc(NC(=O)Nc2cc(C)c(S(=O)(=O)C[N+](=O)[O-])c(C)c2)cc(C)c1S(=O)(=O)C[N+](=O)[O-],224 to 226 °C
23,"COc1cccc(S(=O)(=O)Nc2cc(C)c(S(=O)(=O)C[N+](=O)[O-])c(C)c2)c1 [Example 46, N-[3,5-Dimethyl-4-[(nitromethyl)sulphonyl]phenyl]-3-methoxybenzenesulphonamide]",166 to 168 °C
24,Cc1cc(NC(=O)CC(=O)Nc2cc(C)c(S(=O)(=O)C[N+](=O)[O-])c(C)c2)cc(C)c1S(=O)(=O)C[N+](=O)[O-],197 to 199 °C
25,"Cc1cc(NS(=O)(=O)c2ccc3ccccc3c2)cc(C)c1S(=O)(=O)C[N+](=O)[O-] [Example 15, N-[3,5-Dimethyl-4-[(nitromethyl)sulphonyl]phenyl]-2-naphthalenesulphonamide]",208 to 215 °C
26,"Cc1cc(NS(=O)(=O)c2ccc(S(C)(=O)=O)cc2)cc(C)c1S(=O)(=O)C[N+](=O)[O-] [Example 18, N-[3,5-Dimethyl-4-[(nitromethyl)sulphonyl]phenyl]-4-(methylsulphonyl)benzenesulphonamide]",192 to 194 °C
27,"Cc1cc(NS(=O)(=O)c2cccc(C(F)(F)F)c2)cc(C)c1S(=O)(=O)C[N+](=O)[O-] [Example 9, N-[3,5-Dimethyl-4-[(nitromethyl)sulphonyl]phenyl]-3-(trifluoromethyl)benzenesulphonamide]",146 to 148 °C
28,"Cc1cc(NS(=O)(=O)c2ccccc2)cc(C)c1[S+]([O-])C[N+](=O)[O-] (stereo not drawn) [Example 4, N-[3,5-Dimethyl-4-[(nitromethyl)sulphinyl]phenyl]-benzenesulphonamide]",> 50 °C (dec.)
29,"Cc1cc(NS(=O)(=O)c2ccc(F)cc2F)cc(C)c1S(=O)(=O)C[N+](=O)[O-] [Example 8, 2,4-Difluoro-N-[3,5-dimethyl-4-[(nitromethyl)sulphonyl]phenyl]benzenesulphonamide]",154 to 156 °C
30,"Cc1cc(NS(=O)(=O)CC2CCCCC2)cc(C)c1S(=O)(=O)C[N+](=O)[O-] [Example 53, N-[3,5-Dimethyl-4-[(nitromethyl)sulphonyl]phenyl]-cyclohexylmethanesulphonamide]",126 to 128 °C

# — US20030203966A1, “Nitromethylthiobenzene derivatives as aldose reductase inhihibitors” (priority 1996, published 2003)
